Assay results from US6783949B1, “Processes for determining whether a test substance contains lipases or lipase inhibitors” (Aventis Pharma Deutschland GmbH, priority 1999, dated 2004).
Where “and” joins values, the source holds several entries; their conditions need not be identical. Equal entries are not always repeated.

How the values were obtained:
Format in all cases: biochemical
[1] = target: T1, HSL (Rattus norvegicus, UniProt P15304); experiment: Tributyrin assay; conditions: Example 6, Table 6; n=5, mean±SD
T1 construct: The partially purified HSL can be stored at −70° C. for 4 to 6 weeks; from tissue; host or cells: rat epididymal fat cells (male Wistar rats)
T1 sequence (P15304 1-768 isoform P15304-2): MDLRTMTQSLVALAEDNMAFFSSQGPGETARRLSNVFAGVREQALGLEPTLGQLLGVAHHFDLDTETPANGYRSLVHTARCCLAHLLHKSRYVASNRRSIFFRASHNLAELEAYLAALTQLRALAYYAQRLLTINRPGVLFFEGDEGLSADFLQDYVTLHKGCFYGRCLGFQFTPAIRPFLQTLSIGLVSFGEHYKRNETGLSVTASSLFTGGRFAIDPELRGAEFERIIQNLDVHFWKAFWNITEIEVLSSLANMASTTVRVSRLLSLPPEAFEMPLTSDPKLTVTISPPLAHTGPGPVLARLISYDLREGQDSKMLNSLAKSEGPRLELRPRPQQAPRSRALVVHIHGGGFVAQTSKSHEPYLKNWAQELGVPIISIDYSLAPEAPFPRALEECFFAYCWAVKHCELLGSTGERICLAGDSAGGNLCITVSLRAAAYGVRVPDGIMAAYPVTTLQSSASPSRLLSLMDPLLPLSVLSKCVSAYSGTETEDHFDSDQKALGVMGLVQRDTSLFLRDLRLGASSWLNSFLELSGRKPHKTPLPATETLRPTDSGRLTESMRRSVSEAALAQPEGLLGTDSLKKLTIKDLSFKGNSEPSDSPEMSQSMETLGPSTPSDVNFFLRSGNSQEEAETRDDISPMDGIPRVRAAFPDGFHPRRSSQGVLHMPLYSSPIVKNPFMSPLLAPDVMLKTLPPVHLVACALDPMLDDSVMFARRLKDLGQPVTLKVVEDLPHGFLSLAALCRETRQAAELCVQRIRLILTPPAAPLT
Procedure: (§1) Isolated rat fat cells are obtained from epididymal fatty tissue from untreated male rats (Wistar, 220-250 g) by collagenase treatment according to published processes. The fat cells from 10 rats are washed three times by flotation with 50 ml each of homogenization buffer ([…], pH 7.4, 0.25 M sucrose, 1 mM ethylenediamine-N,N,N′,N′-tetraacetic acid (EDTA), 1 mM dithiothreitol (DTT), 10 μg/ml of leupeptin, 10 μg/ml of antipain, 20 μg/ml of pepstatin) and finally taken up in 10 ml of homogenization buffer. The fat cells are homogenized in a Teflon-in-glass homogenizer (Braun-Melsungen) by 10 strokes at 1500 rpm and 15° C. The homogenizate is centrifuged (Sorvall SM24 tubes, 5000 rpm, 10 min, 4° C.). […]
For the preparation of the substrate, 5 μCi of [1-^14C]tributyrin (in toluene) are added to 1 ml of 20 mM unlabeled tributyrin (in acetonitrile). […] An equivalent volume (1 ml) of the upper phase is taken and the radioactivity is determined by liquid scintillation measurement.
Substances are customarily tested in four independent batches. The inhibition of the enzymatic activity of the HSL by a test substance is determined by comparison with an uninhibited control reaction. The IC50 value is calculated by means of an inhibition curve using at least 10 concentrations of the test substance. […]

[2] = target: T1, HSL; experiment: TAG assay ([3H]trioleoylglycerol cleavage)
Procedure: as §1, with “C.” for “C. The homogenizate is centrifuged (Sorvall SM24 tubes, 5000 rpm, 10 min, 4° C.).”
For the preparation of the substrate, 25-50 μCi of [^3H]trioleoylglycerol (TAG)(in toluene), 6.8 μMol of unlabeled trioleoylglycerol, and 0.6 mg of phospholipids (phosphatidylcholine/phosphatidylinositol 3:1 w/v) are mixed, dried over N2, and then taken up in 2 ml of 0.1 M potassium dihydrogenphosphate/potassium phosphate buffer (KPi)(pH 7.0) by ultrasonic treatment (Branson 250, microtip, setting 1-2, 2×1 min at a 1 min interval). […] After phase separation, one equivalent of the upper phase (1 ml) is taken and the radioactivity is determined by liquid scintillation measurement.
Substances are customarily tested in four independent batches. […] The IC50 value is calculated by means of an inhibition curve using at least 10 concentrations of the test substance. […]

[3] = target: T2, lipases, preferably HSL (Rattus norvegicus, UniProt P15304); experiment: Synthesized NBD-acylglycerides as substrates of lipases
T2 sequence (P15304 1-768 isoform P15304-2): T1 sequence (P15304 1-768 isoform P15304-2)

SMILES	IC50 [1]	IC50 [2]	Activity as substrate of lipases [3]
O=C(CCCCCCCCCCCNc1ccc([N+](=O)[O-])c2nonc12)OCC(O)CO (racemic) [Compound 3]	> 100 µM	15.3 µM and 17.3 µM	–
O=C(CCCCCCCCCCCNc1ccc([N+](=O)[O-])c2nonc12)OCC(O)CO (stereo not drawn) [Compound (3)]	–	–	“best” substrate
